{
  "source": "patent US11844794B2",
  "about": "“Pharmaceutical compositions” (ADEPTIO PHARMACEUTICALS LIMITED, priority 2017, dated 2023)",
  "key": {"[1]": {"test": "pharmacokinetics after oral administration to male Beagle dogs", "type": "in vivo, Beagle dog", "method": "Doses were administered orally, via gavage, at a dose volume of 2.00 mL/kg yielding the target dose level of 1.50 mg/kg. Following dosing, 10 mL of tap water was flushed down the gavage to ensure the entire dose was dispensed. Following dosing over four sessions each with one of the test materials, serial whole blood samples (circa. 1.3 mL) were collected from a jugular vein then placed into K2 EDTA treated tubes pre-dose and then 0.25, 0.50, 1, 2, 3, 4, 6, 12 and 24 hours post dose. Blood samples were placed immediately on a cool-block before being centrifuged within 15 minutes at 3,000×g, 10 minutes, 4° C. and resultant plasma drawn off. […] Doses were administered orally, via gavage, at a dose volume of 2.00 mL/kg yielding the target dose level of 1.50 mg/kg. Following dosing, 10 mL of tap water was flushed down the gavage to ensure the entire dose was dispensed. Following dosing over four sessions each with one of the test materials, serial whole blood samples (circa. 1.3 mL) were collected from a jugular vein then placed into K2 EDTA treated tubes pre-dose and then 0.25, 0.50, 1, 2, 3, 4, 6, 12 and 24 hours post dose. Blood samples were placed immediately on a cool-block before being centrifuged within 15 minutes at 3,000×g, 10 minutes, 4° C. and resultant plasma drawn off."}, "[2]": {"test": "moisture-sorption analysis", "type": "physicochemical", "conditions": "for moisture uptake: 25° C.", "method": "Moisture-sorption analysis was carried out using a Hiden IGA Sorp moisture-sorption analyser. […] The sample was then subjected to an isothermal (at 25° C.) adsorption scan from 40 to 90% relative humidity in steps of 10%. The sample was allowed to equilibrate to an asymptotic weight at each point for a maximum of four hours. […] An adsorption scan was then performed from 0 to 40% relative humidity inn steps of 10%. The sample was dried for two hours at 60° C. and 0% relative humidity, and the resulting solid was analysed by XRPD."}, "[3]": {"test": "equilibrium aqueous solubility by HPLC", "type": "physicochemical", "conditions": "water, thermodynamic from solid", "method": "The aqueous solubilities of salts were measured by an equilibrium method in which an amount of the salt was weighed into a 2 ml vial equipped with a magnetic stirrer bar and water added. In cases where complete dissolution was observed, more material was added until the sample was exhausted. The slurry was then stirred for seven days before isolating the solids by centrifuge-filtration. The solids were analysed by XRPD and the filtrates were analysed by HPLC to determine the amount of (+)-alpha-dihydrotetrabenazine salt in solution. The solubilities were calculated against a calibration curve established for a (+)-alpha-dihydrotetrabenazine sample of known concentration."}, "[4]": {"conditions": "male, Beagle (HsdRcc:DOBE), dog, plasma, po, 1.5 mg/kg, Plasma concentration of (+)-α-dihydrotetrabenazine, Male 1, oral 1.50 mg/kg (freebase equivalent)"}, "[5]": {"conditions": "male, Beagle (HsdRcc:DOBE), dog, plasma, po, 1.5 mg/kg, Plasma concentration of (+)-α-dihydrotetrabenazine, Male 2, oral 1.50 mg/kg (freebase equivalent)"}, "[6]": {"conditions": "male, Beagle (HsdRcc:DOBE), dog, plasma, po, 1.5 mg/kg, Plasma concentration of (+)-α-dihydrotetrabenazine, Male 3, oral 1.50 mg/kg (freebase equivalent)"}, "[7]": {"conditions": "male, Beagle (HsdRcc:DOBE), dog, plasma, po, 1.5 mg/kg, Plasma concentration of (+)-α-dihydrotetrabenazine, Mean of 3 dogs, oral 1.50 mg/kg (freebase equivalent)"}, "[8]": {"conditions": "male, Beagle (HsdRcc:DOBE), dog, plasma, po, 1.5 mg/kg, Plasma concentration of (+)-α-dihydrotetrabenazine, Mean of 3 dogs, oral 1.50 mg/kg (freebase equivalent), BLQ treated as zero"}},
  "data": [
    {"smiles": "COc1cc2c(cc1OC)[C@H]1C[C@@H](O)[C@H](CC(C)C)CN1CC2.O=C(O)CCC(=O)O", "note": "[(+)-α-dihydrotetrabenazine succinate]", "values": [
      {"measurement": "time post dose at which Cmax was observed", "setting": "[1]; dog, in vivo, po, 1.5 mg/kg", "value": 0.33, "unit": "h"},
      {"measurement": "mean exposure", "setting": "[1]; male Beagle dogs, oral 1.50 mg/kg (freebase equivalent)", "value": 71.8782, "unit": "ng·mL·h"},
      {"measurement": "concentration at 0.25 h", "setting": "[1]; [4]", "value": 66.7, "unit": "ng/mL"},
      {"measurement": "concentration at 0.5 h", "setting": "[1]; [4]", "value": 47.6, "unit": "ng/mL"},
      {"measurement": "concentration at 1 h", "setting": "[1]; [4]", "value": 23.4, "unit": "ng/mL"},
      {"measurement": "concentration at 2 h", "setting": "[1]; [4]", "value": 7.04, "unit": "ng/mL"},
      {"measurement": "concentration at 3 h", "setting": "[1]; [4]", "value": 2.48, "unit": "ng/mL"},
      {"measurement": "concentration at 4 h", "setting": "[1]; [4]", "value": 1.03, "unit": "ng/mL"},
      {"measurement": "concentration at 6 h", "setting": "[1]; [4]", "value": 0.304, "unit": "ng/mL"},
      {"measurement": "concentration at 0.5 h", "setting": "[1]; [5]", "value": 32.4, "unit": "ng/mL"},
      {"measurement": "concentration at 1 h", "setting": "[1]; [5]", "value": 14.8, "unit": "ng/mL"},
      {"measurement": "concentration at 2 h", "setting": "[1]; [5]", "value": 3.65, "unit": "ng/mL"},
      {"measurement": "concentration at 3 h", "setting": "[1]; [5]", "value": 1.23, "unit": "ng/mL"},
      {"measurement": "concentration at 4 h", "setting": "[1]; [5]", "value": 0.531, "unit": "ng/mL"},
      {"measurement": "concentration at 0.5 h", "setting": "[1]; [6]", "value": 83.1, "unit": "ng/mL"},
      {"measurement": "concentration at 1 h", "setting": "[1]; [6]", "value": 49.2, "unit": "ng/mL"},
      {"measurement": "concentration at 2 h", "setting": "[1]; [6]", "value": 21.7, "unit": "ng/mL"},
      {"measurement": "concentration at 3 h", "setting": "[1]; [6]", "value": 10.6, "unit": "ng/mL"},
      {"measurement": "concentration at 4 h", "setting": "[1]; [6]", "value": 6.21, "unit": "ng/mL"},
      {"measurement": "concentration at 6 h", "setting": "[1]; [6]", "value": 1.68, "unit": "ng/mL"},
      {"measurement": "concentration at 12 h", "setting": "[1]; [6]", "value": 0.212, "unit": "ng/mL"},
      {"measurement": "concentration at 0 h", "setting": "[1]; male, Beagle (HsdRcc:DOBE), dog, plasma, po, 1.5 mg/kg, Plasma concentration of (+)-α-dihydrotetrabenazine, Mean of 3 dogs, oral 1.50 mg/kg (freebase equivalent), 0 h (pre-dose), BLQ treated as zero", "value": 0, "unit": "ng/mL"},
      {"measurement": "concentration at 0.25 h", "setting": "[1]; [7]", "value": 46, "unit": "ng/mL"},
      {"measurement": "concentration at 0.5 h", "setting": "[1]; [7]", "value": 54.4, "unit": "ng/mL"},
      {"measurement": "concentration at 1 h", "setting": "[1]; [7]", "value": 29.1, "unit": "ng/mL"},
      {"measurement": "concentration at 2 h", "setting": "[1]; [7]", "value": 10.8, "unit": "ng/mL"},
      {"measurement": "concentration at 3 h", "setting": "[1]; [7]", "value": 4.77, "unit": "ng/mL"},
      {"measurement": "concentration at 4 h", "setting": "[1]; [7]", "value": 2.59, "unit": "ng/mL"},
      {"measurement": "concentration at 6 h", "setting": "[1]; [8]", "value": 0.66, "unit": "ng/mL"},
      {"measurement": "concentration at 12 h", "setting": "[1]; [8]", "value": 0.07, "unit": "ng/mL"},
      {"measurement": "concentration at 24 h", "setting": "[1]; male, Beagle (HsdRcc:DOBE), dog, plasma, po, 1.5 mg/kg, Plasma concentration of (+)-α-dihydrotetrabenazine, Mean of 3 dogs, oral 1.50 mg/kg (freebase equivalent), 24 h, BLQ treated as zero", "value": 0, "unit": "ng/mL"},
      {"measurement": "Cmax", "setting": "[1]; male, Beagle, dog, in vivo, po, 1.5 mg/kg", "value": 64.3, "unit": "ng/mL"},
      {"measurement": "moisture uptake", "setting": "[2]; 60% relative humidity", "value": 0.6, "unit": "weight %"},
      {"measurement": "moisture uptake", "setting": "[2]; 90% relative humidity", "value": 1.3, "unit": "weight %"},
      {"measurement": "XRPD pattern after moisture sorption studies", "setting": "[2]; dried at 60° C. and 0% relative humidity", "value": "No change"},
      {"measurement": "hygroscopicity", "setting": "[2]; gravimetric moisture-sorption", "value": "slightly hygroscopic"},
      {"measurement": "solubility thermodynamic at 7 days", "setting": "[3]", "value": "> 350", "unit": "mg/mL"}
    ]}
  ]
}
